Data published in patent US20260159486A1, “BENZO[H]QUINAZOLINE-4-AMINE DERIVATIVES FOR THE TREATMENT OF CANCER” (Redona Therapeutics, Inc., priority 2021, published 2026).

Tests used:
[1] = test system: CAL-51 cells; assay: CAL-51 proliferation assay; format: cell-based; conditions: Homo sapiens, CAL-51, 72 h, YO-PRO-1 Iodide readout
Text: (§1) MDA-MB-231 and CAL-51 Proliferation Assay
(§2) Cells (MDA-MB-231 (American Type Culture Collection (ATCC), #HTB-26) or CAL-51 (Deutsche Sammlung von Mikroorganismen und Zellkulturen (DSMZ), #ACC302) as applicable) were cultivated in DMEM High Glucose (4.5 g/L) with L-Glutamine (BioConcept, cat. no. 1-26F03-I) supplemented with 1% Na-pyruvate (Sigma, cat. no. S8636), 1% Penicillin-Streptomycin (BioConcept, cat. no. 4-01F00H), and 10% FBS (Sigma, cat. no. F9665) using standard techniques. Cells were seeded in black, clear-bottom 384 well plates for tissue culture (Greiner Bio-One, cat. no. 781091) at a density of 750 cells per well in 20 μL medium and the plates were incubated overnight at 37° C. with 5% CO2 prior to treatment. Experimental compounds were serially diluted in DMSO to 200× the desired final concentrations. The solutions were then diluted 1:40 with culture medium and 5 μL aliquots were mixed into the wells containing the cells. The final concentration of DMSO was 0.5%. The plates were incubated for 72 hours and cell numbers were then measured using YO-PRO™-1 Iodide (ThermoFisher Scientific, cat. no. Y3603) essentially as recommended by the manufacturer. Briefly, a 12.5 μM solution of YO-PRO™_1 Iodide in 5× YO—PRO buffer (100 mM Na-citrate, 130 mM NaCl, pH 4) was combined with an equal volume of lysis buffer (0.6% NP-40, 30 mM EDTA, 30 mM EGTA, 0.33× YO—PRO buffer) and 12.5 μL of the mixture were dispensed into each well. The plates were incubated at room temperature in the dark for 30 minutes. Fluorescence intensity signals were then measured on a Synergy 4 reader (BioTek) using 485/20 nm and 530/25 nm filters for the excitation and emission, respectively. Relative proliferation values were calculated by normalizing the raw data using DMSO-treated cells (100% proliferation) and the signals obtained from cells that were evaluated at the time of compound addition (0% proliferation). The concentration-response data were fitted to a sigmoidal 4-parameter logistic model with the maximum constrained to 100%. GI50 values were calculated from the curves as the compound concentrations reducing proliferation to 50%.

[2] = test system: MDA-MB-231 cells; assay: MDA-MB-231 proliferation assay; format: cell-based; conditions: Homo sapiens, MDA-MB-231, 72 h, YO-PRO-1 Iodide readout
Text: as §1, §2

[3] = target: T1, recombinant human CLK3 (Homo sapiens, UniProt P49761); assay: CLK3 kinase assay (LANCE Ultra); format: biochemical; conditions: CLK3 0.5 nM, ATP 300 μM, 3 hours at 30° C.
T1 construct: purchased Thermo Fisher Scientific PV3826
T1 sequence (P49761 whole entry): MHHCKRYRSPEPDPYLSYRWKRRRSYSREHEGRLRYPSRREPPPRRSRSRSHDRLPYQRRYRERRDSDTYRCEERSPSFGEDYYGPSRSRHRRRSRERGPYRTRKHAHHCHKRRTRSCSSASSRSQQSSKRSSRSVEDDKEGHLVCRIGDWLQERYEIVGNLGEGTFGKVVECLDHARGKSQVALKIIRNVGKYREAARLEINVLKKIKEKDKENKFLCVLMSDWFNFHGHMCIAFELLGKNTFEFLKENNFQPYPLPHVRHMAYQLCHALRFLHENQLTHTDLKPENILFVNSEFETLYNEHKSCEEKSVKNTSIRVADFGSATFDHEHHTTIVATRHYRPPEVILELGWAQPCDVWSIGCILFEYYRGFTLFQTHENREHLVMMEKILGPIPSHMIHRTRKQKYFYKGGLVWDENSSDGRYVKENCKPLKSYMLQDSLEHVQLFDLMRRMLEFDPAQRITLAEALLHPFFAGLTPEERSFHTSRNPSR
Method: CLK3 kinase activity was measured using the LANCE® Ultra technology (PerkinElmer) essentially as recommended by the supplier. Briefly, 2.5 μL of test sample at 4× the desired final concentration in 4% DMSO were dispensed into white, low volume, round bottom, 384 well plates (Corning, cat. no. 4512). 5 μL of a mixture containing recombinant human CLK3 (Thermo Fisher Scientific, cat. no. PV3826) and the labeled peptide substrate ULight™-CREBtide (PerkinElmer, cat. no. TRF0107) prepared in 1.33× kinase buffer (Thermo Fisher Scientific, cat. no. PV3189) were then added. Finally, the reactions were started by adding 2.5 μL of a 4× solution of ATP in kinase buffer. The plates were sealed with adhesive foils and incubated for 3 hours at 30° C. in the dark. The final concentrations of CLK3, ULight™-CREBtide, and ATP were 0.5 nM, 50 nM, and 300 μM, respectively. 5 μL of 40 mM EDTA were then added to terminate the reactions. The Eu-anti-phospho-CREB antibody (PerkinElmer, cat. no. TRF0200) diluted in LANCE® detection buffer (PerkinElmer, cat. no. CR97) was then added to a final concentration of 2 nM and the reactions were incubated for 1 hour at room temperature in the dark. The signals were measured using a Synergy 4 reader (BioTek) with a 320/80 nm filter for the excitation and 620/10 nm and 665/8 nm filters for the donor and acceptor emission, respectively. Relative inhibition values were calculated by normalizing the raw data using solvent control wells (0% inhibition) and wells that received no ATP (100% inhibition). IC50 values were calculated by fitting the concentration-response data to a sigmoidal 4-parameter logistic model. IC50 values for CLK3 are determined from duplicate measurements at ten different concentrations (serial 1:3 dilutions).

Compound	GI50 [2] [nM]	IC50 [3] [nM]	GI50 [1] [nM]
CNC(=O)CN(C)c1c(O[C@H]2CC[C@@H](N)CC2)ccc2c1CC(C)(C)c1c(N)ncnc1-2 [Example 26, 2-[[4-amino-8-(cis-4-aminocyclohexoxy)-5,5-dimethyl-6H-benzo[h]quinazolin-7-yl]-methyl-amino]-N-methyl-acetamide]	> 2000	101 to 1000	> 2000
Nc1ncnc2c1C1(CCCC1)Cc1c-2ccc(O[C@H]2CC[C@@H](N)CC2)c1NCCO [Example 70, 2-[[4-amino-8-(cis-4-aminocyclohexoxy)spiro[6H-benzo[h]quinazoline-5,1′-cyclopentane]-7-yl]amino]ethanol]	100 to 2000	< 30	100 to 2000
CN(CCS(C)(=O)=O)c1c(O[C@H]2CC[C@@H](N)CC2)ccc2c1CC(C)(C)c1c(N)ncnc1-2 [Example 32, 8-(cis-4-aminocyclohexoxy)-N7,5,5-trimethyl-N7-(2-methylsulfonylethyl)-6H-benzo[h]quinazoline-4,7-diamine]	> 2000	< 30	> 2000
CC1(C)Cc2c(ccc(O[C@H]3CC[C@H](N)CC3)c2N2CCOCC2)-c2ncnc(N)c21 [Example 10, 8-(trans-4-aminocyclohexoxy)-5,5-dimethyl-7-morpholino-6H-benzo[h]quinazolin-4-amine]	100 to 2000	30 to 100	100 to 2000
CN(CCO)c1c(O[C@H]2CC[C@H](N)CC2)ccc2c1CC1(CCCC1)c1c(N)ncnc1-2 [Example 59, 2-[[4-amino-8-(4-trans-aminocyclohexoxy)spiro[6H-benzo[h]quinazoline-5,1′-cyclopentane]-7-yl]-methyl-amino]ethanol]	100 to 2000	< 30	< 100
CN(c1c(O[C@H]2CC[C@H](N)CC2)ccc2c1CC(C)(C)c1c(N)ncnc1-2)S(=O)(=O)CCC(N)=O [Example 86, 3-[[4-amino-8-(trans-4-aminocyclohexoxy)-5,5-dimethyl-6H-benzo[h]quinazolin-7-yl]-methyl-sulfamoyl]propanamide]	> 2000	< 30	100 to 2000
COCCCc1c(OC)ccc2c1CC(C)(C)c1c(N)ncnc1-2 [Example 61, 8-methoxy-7-(3-methoxypropyl)-5,5-dimethyl-6H-benzo[h]quinazolin-4-amine]	100 to 2000	101 to 1000	100 to 2000
CC1(C)Cc2c(ccc(O[C@H]3CC[C@H](N)CC3)c2N2CCC(O)C2)-c2ncnc(N)c21 (single isomer, unassigned) [Example 15, 1-[4-amino-8-(trans-4-aminocyclohexoxy)-5,5-dimethyl-6H-benzo[h]quinazolin-7-yl]pyrrolidin-3-ol]	100 to 2000	< 30	< 100
CN(CC(C)(C)CO)c1c(O[C@H]2CC[C@H](N)CC2)ccc2c1CC(C)(C)c1c(N)ncnc1-2 [Example 110, 3-[[4-amino-8-(trans-4-aminocyclohexoxy)-5,5-dimethyl-6H-benzo[h]quinazolin-7-yl]-methyl-amino]-2,2-dimethyl-propan-1-ol]	100 to 2000	< 30	< 100
COc1ccc2c(c1C)CC(C)(C)c1c(N)ncnc1-2 [Example 1, 8-methoxy-5,5,7-trimethyl-6H-benzo[h]quinazolin-4-amine]	> 2000	< 30	100 to 2000
COc1ccc2c(c1NC[C@@H]1CNC(=O)O1)CC(C)(C)c1c(N)ncnc1-2 [Example 82, (5R)-5-[[(4-amino-8-methoxy-5,5-dimethyl-6H-benzo[h]quinazolin-7-yl)amino]methyl]oxazolidin-2-one]	100 to 2000	< 30	< 100

Second part, led by results:

GI50 [2] [nM]	IC50 [3] [nM]	Compound	GI50 [1] [nM]
100 to 2000	101 to 1000	COCCN(C)c1c(O[C@H]2CC[C@H](N)CC2)ccc2c1CC1(CCCC1)c1c(N)ncnc1-2 [Example 72, 8-(trans-4-aminocyclohexoxy)-N7-(2-methoxyethyl)-N7-methyl-spiro[6H-benzo[h]quinazoline-5,1′-cyclopentane]-4,7-diamine]	100 to 2000
100 to 2000	< 30	CN(CC#N)c1c(O[C@H]2CC[C@H](N)CC2)ccc2c1CC(C)(C)c1c(N)ncnc1-2 [Example 33, 2-[[4-amino-8-(trans-4-aminocyclohexoxy)-5,5-dimethyl-6H-benzo[h]quinazolin-7-yl]-methyl-amino]acetonitrile]	< 100
100 to 2000	< 30	CN(CCN)c1c(O[C@H]2CC[C@H](N)CC2)ccc2c1CC(C)(C)c1c(N)ncnc1-2 [Example 80, 8-(trans-4-aminocyclohexoxy)-N7-(2-aminoethyl)-N7,5,5-trimethyl-6H-benzo[h]quinazoline-4,7-diamine]	100 to 2000
100 to 2000	30 to 100	COCCNc1c(O[C@H]2CC[C@@H](N)CC2)ccc2c1CC1(CCCC1)c1c(N)ncnc1-2 [Example 87, 8-(cis-4-aminocyclohexoxy)-N7-(2-methoxyethyl)spiro[6H-benzo[h]quinazoline-5,1′-cyclopentane]-4,7-diamine]	100 to 2000
100 to 2000	101 to 1000	CN(Cc1ccncc1)c1c(O[C@H]2CC[C@H](N)CC2)ccc2c1CC(C)(C)c1c(N)ncnc1-2 [Example 101, 8-(trans-4-aminocyclohexoxy)-N7,5,5-trimethyl-N7-(4-pyridylmethyl)-6H-benzo[h]quinazoline-4,7-diamine]	100 to 2000
100 to 2000	101 to 1000	COc1ccc2c(c1N(CCC#N)Cc1nnc(C(C)F)o1)CC(C)(C)c1c(N)ncnc1-2 (stereo not drawn) [Example 124, 3-[(4-amino-8-methoxy-5,5-dimethyl-6H-benzo[h]quinazolin-7-yl)-[[5-(1-fluoroethyl)-1,3,4-oxadiazol-2-yl]methyl]amino]propanenitrile]	100 to 2000
< 100	< 30	CN(CC1(C#N)CC1)c1c(O[C@H]2CC[C@H](N)CC2)ccc2c1CC(C)(C)c1c(N)ncnc1-2 [Example 48, 1-[[[4-amino-8-(trans-4-aminocyclohexoxy)-5,5-dimethyl-6H-benzo[h]quinazolin-7-yl]-methyl-amino]methyl]cyclopropanecarbonitrile]	< 100
< 100	< 30	COc1ccc2c(c1N(C)CCC#N)CC(C)(C)c1c(N)ncnc1-2 [Example 95, 3-[(4-amino-8-methoxy-5,5-dimethyl-6H-benzo[h]quinazolin-7-yl)-methyl-amino]propanenitrile]	< 100
< 100	< 30	CN(CCC#N)c1c(OC2CCNCC2)ccc2c1CC(C)(C)c1c(N)ncnc1-2 [Example 93, 3-[[4-amino-5,5-dimethyl-8-(4-piperidyloxy)-6H-benzo[h]quinazolin-7-yl]-methyl-amino]propanenitrile]	< 100
< 100	< 30	CC1(C)Cc2c(ccc(O[C@H]3CC[C@H](N)CC3)c2N2CCC(C#N)C2)-c2ncnc(N)c21 (single isomer, unassigned) [Example 49, 1-[4-amino-8-(trans-4-aminocyclohexoxy)-5,5-dimethyl-6H-benzo[h]quinazolin-7-yl]pyrrolidine-3-carbonitrile]	< 100
